Activity calls are given as the source filed them.
Experiments:
Format in all cases: functional
[1] = biological target: Voltage-dependent T-type calcium channel subunit alpha-1H (Homo sapiens, UniProt O95180); assay: human CACNA1H calcium influx blockade – cell-based, synthetic library set 1, calcium flux (AID 493022)
[2] = HepG2 cell cytotoxicity, dose response, cytotoxicity control for non-replicating M. tuberculosis project (AID 489018); conditions: Mycobacterium tuberculosis
[3] = THP-1 cell cytotoxicity, dose response, cytotoxicity control for non-replicating M. tuberculosis project (AID 489025)
cells = assay: cells
[4] = biological target: Polyadenylate-binding protein 1 (Homo sapiens, UniProt P11940); assay: PABP inhibition in translation initiation, SAR follow-up (AID 435018)
[5] = biological target: Eukaryotic translation initiation factor 4H (Homo sapiens, UniProt Q15056); assay: inhibitors of translation initiation factor eIF4H – SAR follow-up (AID 435011)
Hexokinase = Hexokinase (Trypanosoma brucei, UniProt Q38C41); assay: Confirmation assay for inhibitors of Trypanosoma brucei hexokinase 1-Analogue-first series. [Related pubchem assays (depositor defined):AID1430, AID1632, AID2516, AID2560, AID2579, AID2600, AID449725, AID492951]
Hexokinase, sequence (Q38C41 whole entry): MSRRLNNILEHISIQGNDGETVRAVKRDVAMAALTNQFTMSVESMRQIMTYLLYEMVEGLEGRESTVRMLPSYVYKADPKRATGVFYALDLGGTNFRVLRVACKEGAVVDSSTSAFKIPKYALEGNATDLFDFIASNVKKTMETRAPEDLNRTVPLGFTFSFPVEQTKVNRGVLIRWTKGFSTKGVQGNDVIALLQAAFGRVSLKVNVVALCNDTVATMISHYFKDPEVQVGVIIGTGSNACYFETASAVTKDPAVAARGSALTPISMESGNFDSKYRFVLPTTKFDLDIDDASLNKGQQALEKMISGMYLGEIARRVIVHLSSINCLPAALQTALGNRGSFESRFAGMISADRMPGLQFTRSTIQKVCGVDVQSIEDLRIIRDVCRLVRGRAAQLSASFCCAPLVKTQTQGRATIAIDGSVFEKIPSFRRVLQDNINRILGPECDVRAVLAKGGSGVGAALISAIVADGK

Polyadenylate-binding protein 1, sequence (P11940 whole entry): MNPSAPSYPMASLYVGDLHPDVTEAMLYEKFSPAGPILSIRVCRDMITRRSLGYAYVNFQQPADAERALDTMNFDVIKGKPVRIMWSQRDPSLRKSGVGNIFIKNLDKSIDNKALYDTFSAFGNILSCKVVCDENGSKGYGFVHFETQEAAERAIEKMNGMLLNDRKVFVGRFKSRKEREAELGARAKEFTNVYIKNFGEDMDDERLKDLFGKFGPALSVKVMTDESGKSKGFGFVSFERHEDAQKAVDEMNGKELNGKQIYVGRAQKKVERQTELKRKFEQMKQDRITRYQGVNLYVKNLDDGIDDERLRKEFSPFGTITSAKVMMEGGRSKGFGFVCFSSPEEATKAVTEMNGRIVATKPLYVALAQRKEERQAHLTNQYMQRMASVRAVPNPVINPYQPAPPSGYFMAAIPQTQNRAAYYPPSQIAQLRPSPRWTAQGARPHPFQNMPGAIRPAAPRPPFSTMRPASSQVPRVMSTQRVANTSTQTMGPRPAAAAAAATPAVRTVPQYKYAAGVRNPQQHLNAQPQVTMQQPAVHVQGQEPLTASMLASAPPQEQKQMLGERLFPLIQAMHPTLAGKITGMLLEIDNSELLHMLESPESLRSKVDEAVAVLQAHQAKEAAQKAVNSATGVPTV
Voltage-dependent T-type calcium channel subunit alpha-1H, sequence (O95180 whole entry): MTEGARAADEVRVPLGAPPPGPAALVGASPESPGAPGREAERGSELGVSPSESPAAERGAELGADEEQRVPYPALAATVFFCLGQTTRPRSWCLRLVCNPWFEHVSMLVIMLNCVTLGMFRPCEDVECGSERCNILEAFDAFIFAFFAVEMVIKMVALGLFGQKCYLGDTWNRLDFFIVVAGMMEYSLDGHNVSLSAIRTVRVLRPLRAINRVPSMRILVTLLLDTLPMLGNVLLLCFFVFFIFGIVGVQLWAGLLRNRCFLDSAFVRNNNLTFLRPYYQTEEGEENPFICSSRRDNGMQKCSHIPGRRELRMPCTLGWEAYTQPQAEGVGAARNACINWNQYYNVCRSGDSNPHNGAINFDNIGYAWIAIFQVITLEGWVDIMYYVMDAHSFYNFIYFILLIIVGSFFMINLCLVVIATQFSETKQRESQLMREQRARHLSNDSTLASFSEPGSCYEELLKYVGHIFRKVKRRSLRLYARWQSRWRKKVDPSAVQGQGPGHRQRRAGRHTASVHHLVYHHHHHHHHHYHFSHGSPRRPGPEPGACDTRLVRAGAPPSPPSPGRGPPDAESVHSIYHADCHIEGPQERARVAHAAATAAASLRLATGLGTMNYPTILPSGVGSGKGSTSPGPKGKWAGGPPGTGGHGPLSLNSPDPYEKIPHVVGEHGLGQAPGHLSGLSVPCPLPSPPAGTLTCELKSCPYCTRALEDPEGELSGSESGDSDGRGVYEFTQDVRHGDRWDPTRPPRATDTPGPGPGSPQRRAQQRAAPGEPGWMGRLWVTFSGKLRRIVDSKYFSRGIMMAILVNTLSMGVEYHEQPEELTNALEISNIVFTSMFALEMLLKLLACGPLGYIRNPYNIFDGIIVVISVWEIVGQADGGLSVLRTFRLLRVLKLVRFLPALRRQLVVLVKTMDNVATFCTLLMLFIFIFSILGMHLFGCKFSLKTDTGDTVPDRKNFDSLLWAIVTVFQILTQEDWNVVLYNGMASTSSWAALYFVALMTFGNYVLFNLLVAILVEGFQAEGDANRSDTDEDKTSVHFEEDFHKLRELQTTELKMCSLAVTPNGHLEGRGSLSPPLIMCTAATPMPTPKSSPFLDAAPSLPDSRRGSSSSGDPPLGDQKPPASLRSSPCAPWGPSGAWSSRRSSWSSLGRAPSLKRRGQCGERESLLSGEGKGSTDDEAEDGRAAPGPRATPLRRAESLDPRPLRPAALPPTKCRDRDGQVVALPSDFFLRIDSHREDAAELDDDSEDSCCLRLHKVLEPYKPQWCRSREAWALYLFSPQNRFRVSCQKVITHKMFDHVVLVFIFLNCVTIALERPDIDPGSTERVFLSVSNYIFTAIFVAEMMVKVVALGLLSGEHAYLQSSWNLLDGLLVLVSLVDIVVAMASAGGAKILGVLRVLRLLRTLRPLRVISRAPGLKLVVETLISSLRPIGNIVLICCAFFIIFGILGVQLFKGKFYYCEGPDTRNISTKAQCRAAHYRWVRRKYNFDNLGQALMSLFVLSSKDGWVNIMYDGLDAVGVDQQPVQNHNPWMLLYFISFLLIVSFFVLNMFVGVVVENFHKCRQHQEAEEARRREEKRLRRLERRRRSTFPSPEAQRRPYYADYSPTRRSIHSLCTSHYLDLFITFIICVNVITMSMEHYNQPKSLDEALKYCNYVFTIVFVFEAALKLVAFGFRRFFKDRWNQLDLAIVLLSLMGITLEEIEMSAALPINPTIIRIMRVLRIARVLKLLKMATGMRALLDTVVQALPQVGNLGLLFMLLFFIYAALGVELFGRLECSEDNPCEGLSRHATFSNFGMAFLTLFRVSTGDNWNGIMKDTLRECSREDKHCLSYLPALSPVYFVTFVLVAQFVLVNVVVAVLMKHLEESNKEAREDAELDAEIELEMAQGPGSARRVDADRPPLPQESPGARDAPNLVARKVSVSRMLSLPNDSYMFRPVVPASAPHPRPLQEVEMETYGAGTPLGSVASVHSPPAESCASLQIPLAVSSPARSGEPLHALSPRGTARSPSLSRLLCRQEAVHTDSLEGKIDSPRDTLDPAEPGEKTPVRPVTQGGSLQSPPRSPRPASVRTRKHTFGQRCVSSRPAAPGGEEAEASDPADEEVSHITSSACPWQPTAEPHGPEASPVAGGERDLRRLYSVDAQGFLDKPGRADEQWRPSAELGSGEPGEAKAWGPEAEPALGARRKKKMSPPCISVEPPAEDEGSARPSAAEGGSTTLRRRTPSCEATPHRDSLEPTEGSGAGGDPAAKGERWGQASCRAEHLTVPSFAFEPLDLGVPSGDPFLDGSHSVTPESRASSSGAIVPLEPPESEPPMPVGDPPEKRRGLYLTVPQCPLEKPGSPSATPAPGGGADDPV

O=C(COc1ccc(F)cc1Cl)Nc1nnc(-c2ccc3c(c2)OCO3)o1
EC50 [1]: 2.1 µM (active)

CCOc1ccc(C(=O)Nc2nc3ccccc3[nH]2)cc1OCC
CC50 [2]: 18.8 µM (active) | CC50 [3]: > 40 µM (active) | IC50 (cells): 12 µM (active)

COc1ccc(NC(=O)C2CC(=O)N(C)/C(=N\c3ccccc3OC)S2)cc1 (configuration not stated)
IC50 [4]: > 100 µM (inactive) | IC50 [5]: > 100 µM (inactive)

O=C(Cn1sc2ccccc2c1=O)Nc1cccc(C(F)(F)F)c1
IC50 (Hexokinase): > 25 µM (inactive)

— ChEMBL document CHEMBL1201862, “PubChem BioAssay data set” (2004)
